# Test results from patent US9642815B2, “Biocompatible graphene quantum dots for drug delivery and bioimaging applications” (Council of Scientific and Industrial Research, priority 2013, dated 2017).
# “Also recorded” adds a separate entry of the source.
# Test system: ROS
# Test: Cell free ROS assay with H2O2 and H2DCF indicator
# Settings: free PEG added to C-GQDs (FIG. 18B)
# Experimental: The samples (C-GQDs, H-GQDs, S-GQDs and P-GQDs) were incubated with H2O2 in 10% fetal bovine serum (FBS) solution at 37° C. Chemically hydrolyzed 2,7-dichlorodihydrofluorescein diacetate (H2DCF-DA), yielding H2DCF, was used as a fluorescent indicator of ROS production. The increase in ROS over 90 min with 10 μM and 20 μM H2O2 in the presence and absence of GQDs were monitored. In the case of C-GQDs and H-GQDs incubated with 20 μM H2O2, the ROS production increased ˜3 and ˜4 times respectively (FIG. 7A). […] Thus, confirming again the ROS quenching ability of PEG. […] The H-GQDs produced more ROS than C-GQDs, likely because of more free-radical-susceptible hydroxyl groups on the surface generated by the hydrothermal treatment.
substance,measurement,value
polyethylene glycol [free PEG],ROS quenching by free PEG in solution along with C-GQD,did not quench the ROS produced in solution; also recorded: No significant quenching
